Source: US11919896B2, “[1,2,4]triazolo[1,5-a]pyridine compound as JAK inhibitor and use thereof” (Zhuhai United Laboratories Co., Ltd., priority 2018, dated 2024)
Where “and” joins values, the source holds several entries; their conditions need not be identical. Equal values may be shown once. Read-outs that look alike come from different tables or passages of the source. Marks after values point to notes of the source that are not given here.

Experiments:
[1] = target: JAK3 (Homo sapiens (Human), UniProt P52333); assay: In vitro kinase activity test, JAK3(h) enzyme reaction; format: biochemical
Description: (§1) Recombinant human JAK1, JAK2, JAK3, Tyk2 protease, most of the apparatuses and reagents were supplied by Eurofins (UK).
(§2) All the compounds were prepared into 100% DMSO solution and the concentration reached final measured concentration of 50 times. The test compound was diluted by a 3-fold concentration gradient, and the final concentration was 9 concentrations from 10 μM to 0.001 μM. The content of DMSO in the detect reaction was 2%. The stock solution of this compound was added into wells as a first component, then the other components were added as the following detailed process.
Enzyme Reaction of JAK3(h)
(§3) Mixture of Mg/ATP was added to start reaction, which was stopped by adding 0.5% phosphoric acid after 40 minutes incubation.

[2] = target: JAK1 (Homo sapiens (Human), UniProt P23458); assay: In vitro kinase activity test, JAK1(h) enzyme reaction; format: biochemical
Description: (§4) Experiment 1: In Vitro Test of Activities of Jak1, Jak2, Jak3, Tyk2 Kinases
as §1, §2
Enzyme Reaction of JAK1(h)
Mixture of Mg/ATP was added to start reaction, which was stopped by adding 0.5% phosphoric acid after 40 minutes incubation at room temperature.

[3] = target: TYK2 (Homo sapiens (Human), UniProt P29597); assay: In vitro kinase activity test, TYK2(h) enzyme reaction; format: biochemical
Description: as §1, §2
Enzyme Reaction of TYK2(h)
as §3

[4] = target: JAK2 (Homo sapiens (Human), UniProt O60674); assay: In vitro kinase activity test, JAK2(h) enzyme reaction; format: biochemical
Description: as §4, §1, §2
Enzyme Reaction of JAK2(h)
as §3

[5] = tested on: collagen-induced arthritis (CIA) in mice; format: in vivo, DBA/1 mice; set-up: key to Average clinical score: score 0-4 per limb, max 16 per animal
Description: Experiment 3: In Vivo Efficacy Study of Collagen-Induced Arthritis (CIA) in Mice
1. Type II Collagen/Complete Freund's Adjuvant Immune
Preparation of acetic acid: 2N acetic acid was diluted to 100 mM, filtered by 0.22 micron filter membrane, and stored at 4° C.
Bovine type 2 collagen (CII) was dissolved in 100 mM acetic acid solution, then stored overnight at 4° C. Final concentration of the collagen is 8 mg/ml.
Preparation of emulsion: the overnight stored CII solution was mixed with equal volume of complete Freund's adjuvant, and homogenized on ice on a high-speed homogenizer at 30,000 revolutions per minute for approximately 60 minutes until the solution forms a stable emulsion.
2. Induction of Arthritis:
Mice were randomly divided into different treatment groups. The day for the first immunization is recorded as day 0, and the subsequent days are marked in order.
DBA/1 mice were anesthetized with isoflurane and injected with […] prepared collagen emulsion (containing […] CII) subcutaneously (2-3 cm from the root of the tail). At day 21, the tail was injected with the same volume of collagen emulsion in the same way. The mice in the normal group was not immunized.
3. Designs of Administration and Dosages
At day 28, when average clinical score is about […] with moderate incidence were selected ad randomly divided into 5 treatment groups based on body weights and scores, with each group having 8 mice.
Dexamethasone (Dex.) was used as a reference drug for measuring whether the model was successfully established, with a dose of 0.3 mg/kg (a commonly used dose in a CIA model). […] They were administered twice a day for a total of 14 days.
4. Measuring of Incidence Index of Arthritis
Clinical observation: from 7 days before immunization to the 21st day after immunization, the basic health status and weight changes of DBA/1 mice was observed daily (recorded once a week). After the 22nd day, the health status, the incidence circumstances, and weight changes of the mice was observed every day (recorded at least three times a week) until the end of the experiment.
Clinical scoring: the incidence of the mice was observed every day after boosting the immune function. After the mice was attacked (showing clinical symptoms of arthritis), the incidence was scored from 0-4 as scoring standard according to different levels of the disease (redness, joint deformation). The highest score for each limb is 4, and the highest score for each animal is 16. The scoring was performed three times a week.
The experimental data is expressed as mean standard error (Mean SEM), and the area under the curve (AUC) is analyzed by one-way ANOVA. P<0.05 is considered to be significant.

[6] = tested on: adjuvant-induced arthritis rat model; details: AIA rats, 30 mg/kg p.o. bid
[7] = CIA mice, 0.3 mg/kg p.o. qd, day 21
[8] = CIA mice, 0.3 mg/kg p.o. qd, day 24
[9] = CIA mice, 0.3 mg/kg p.o. qd, day 27
[10] = CIA mice, 0.3 mg/kg p.o. qd, day 28
[11] = CIA mice, 0.3 mg/kg p.o. qd, day 29
[12] = CIA mice, 0.3 mg/kg p.o. qd, day 31
[13] = CIA mice, 0.3 mg/kg p.o. qd, day 31, listed as Dex
[14] = CIA mice, 0.3 mg/kg p.o. qd, day 34
[15] = CIA mice, 0.3 mg/kg p.o. qd, day 36
[16] = CIA mice, 0.3 mg/kg p.o. qd, day 38
[17] = CIA mice, 0.3 mg/kg p.o. qd, day 41

Sequence of TYK2 (P29597 whole entry): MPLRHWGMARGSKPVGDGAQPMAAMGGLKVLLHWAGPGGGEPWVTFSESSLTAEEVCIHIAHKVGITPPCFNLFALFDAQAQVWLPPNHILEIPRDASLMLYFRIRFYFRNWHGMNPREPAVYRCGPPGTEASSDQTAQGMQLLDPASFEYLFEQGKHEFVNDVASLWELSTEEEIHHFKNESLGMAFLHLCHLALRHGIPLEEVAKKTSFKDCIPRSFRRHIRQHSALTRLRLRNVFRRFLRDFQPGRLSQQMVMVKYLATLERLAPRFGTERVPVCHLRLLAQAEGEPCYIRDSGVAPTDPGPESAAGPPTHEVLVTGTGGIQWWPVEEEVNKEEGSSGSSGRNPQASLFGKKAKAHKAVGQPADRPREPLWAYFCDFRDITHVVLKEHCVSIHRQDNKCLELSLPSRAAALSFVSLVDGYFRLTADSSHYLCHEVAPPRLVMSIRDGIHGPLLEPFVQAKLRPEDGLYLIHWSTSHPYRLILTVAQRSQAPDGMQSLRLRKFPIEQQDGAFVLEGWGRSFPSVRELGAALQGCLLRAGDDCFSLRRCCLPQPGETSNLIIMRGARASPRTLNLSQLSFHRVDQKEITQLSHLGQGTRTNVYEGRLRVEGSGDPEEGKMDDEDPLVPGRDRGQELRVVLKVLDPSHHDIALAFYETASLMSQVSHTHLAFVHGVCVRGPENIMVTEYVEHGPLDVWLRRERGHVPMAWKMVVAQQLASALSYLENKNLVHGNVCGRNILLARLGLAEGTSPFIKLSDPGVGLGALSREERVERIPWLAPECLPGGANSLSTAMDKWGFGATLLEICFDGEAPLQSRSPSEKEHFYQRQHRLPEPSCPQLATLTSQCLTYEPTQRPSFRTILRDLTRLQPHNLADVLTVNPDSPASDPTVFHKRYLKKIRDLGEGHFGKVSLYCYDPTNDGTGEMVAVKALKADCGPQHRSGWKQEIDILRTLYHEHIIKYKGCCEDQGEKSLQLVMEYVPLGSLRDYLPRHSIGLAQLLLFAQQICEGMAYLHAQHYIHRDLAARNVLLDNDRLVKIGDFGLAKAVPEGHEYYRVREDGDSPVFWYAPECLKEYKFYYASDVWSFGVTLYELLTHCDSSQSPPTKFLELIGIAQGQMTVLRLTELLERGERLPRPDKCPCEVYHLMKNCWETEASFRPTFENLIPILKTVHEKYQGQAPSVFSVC
Sequence of JAK3 (P52333 whole entry): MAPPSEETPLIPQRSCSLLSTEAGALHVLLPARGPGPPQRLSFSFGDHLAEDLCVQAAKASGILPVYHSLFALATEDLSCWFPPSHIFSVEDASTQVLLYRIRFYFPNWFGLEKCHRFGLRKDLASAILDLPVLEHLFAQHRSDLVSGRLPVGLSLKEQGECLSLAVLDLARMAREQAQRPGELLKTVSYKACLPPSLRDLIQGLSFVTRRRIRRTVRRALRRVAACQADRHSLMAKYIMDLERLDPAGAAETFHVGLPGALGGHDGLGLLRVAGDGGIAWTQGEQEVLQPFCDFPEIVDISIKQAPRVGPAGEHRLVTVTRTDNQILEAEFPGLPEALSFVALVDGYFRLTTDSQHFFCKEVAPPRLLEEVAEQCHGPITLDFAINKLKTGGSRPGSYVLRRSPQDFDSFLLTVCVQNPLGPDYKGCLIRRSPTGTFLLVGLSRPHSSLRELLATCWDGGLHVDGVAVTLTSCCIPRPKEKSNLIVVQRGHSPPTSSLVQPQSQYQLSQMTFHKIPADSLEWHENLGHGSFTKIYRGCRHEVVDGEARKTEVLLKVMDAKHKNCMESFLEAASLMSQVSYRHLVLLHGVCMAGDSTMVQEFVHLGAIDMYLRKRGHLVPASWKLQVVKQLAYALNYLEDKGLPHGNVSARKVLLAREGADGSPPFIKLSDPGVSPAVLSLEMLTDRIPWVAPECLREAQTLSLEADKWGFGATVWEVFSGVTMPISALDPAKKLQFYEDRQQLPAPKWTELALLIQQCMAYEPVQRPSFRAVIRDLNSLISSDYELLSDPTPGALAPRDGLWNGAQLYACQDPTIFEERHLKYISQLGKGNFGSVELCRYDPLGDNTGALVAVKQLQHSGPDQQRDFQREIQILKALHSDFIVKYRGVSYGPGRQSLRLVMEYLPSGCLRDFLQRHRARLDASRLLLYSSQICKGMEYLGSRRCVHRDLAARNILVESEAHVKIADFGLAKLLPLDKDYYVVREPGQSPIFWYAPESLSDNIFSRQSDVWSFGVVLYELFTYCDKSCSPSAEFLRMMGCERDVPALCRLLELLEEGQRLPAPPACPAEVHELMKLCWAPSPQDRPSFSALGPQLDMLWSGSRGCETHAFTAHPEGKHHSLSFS
Sequence of JAK2 (O60674 whole entry): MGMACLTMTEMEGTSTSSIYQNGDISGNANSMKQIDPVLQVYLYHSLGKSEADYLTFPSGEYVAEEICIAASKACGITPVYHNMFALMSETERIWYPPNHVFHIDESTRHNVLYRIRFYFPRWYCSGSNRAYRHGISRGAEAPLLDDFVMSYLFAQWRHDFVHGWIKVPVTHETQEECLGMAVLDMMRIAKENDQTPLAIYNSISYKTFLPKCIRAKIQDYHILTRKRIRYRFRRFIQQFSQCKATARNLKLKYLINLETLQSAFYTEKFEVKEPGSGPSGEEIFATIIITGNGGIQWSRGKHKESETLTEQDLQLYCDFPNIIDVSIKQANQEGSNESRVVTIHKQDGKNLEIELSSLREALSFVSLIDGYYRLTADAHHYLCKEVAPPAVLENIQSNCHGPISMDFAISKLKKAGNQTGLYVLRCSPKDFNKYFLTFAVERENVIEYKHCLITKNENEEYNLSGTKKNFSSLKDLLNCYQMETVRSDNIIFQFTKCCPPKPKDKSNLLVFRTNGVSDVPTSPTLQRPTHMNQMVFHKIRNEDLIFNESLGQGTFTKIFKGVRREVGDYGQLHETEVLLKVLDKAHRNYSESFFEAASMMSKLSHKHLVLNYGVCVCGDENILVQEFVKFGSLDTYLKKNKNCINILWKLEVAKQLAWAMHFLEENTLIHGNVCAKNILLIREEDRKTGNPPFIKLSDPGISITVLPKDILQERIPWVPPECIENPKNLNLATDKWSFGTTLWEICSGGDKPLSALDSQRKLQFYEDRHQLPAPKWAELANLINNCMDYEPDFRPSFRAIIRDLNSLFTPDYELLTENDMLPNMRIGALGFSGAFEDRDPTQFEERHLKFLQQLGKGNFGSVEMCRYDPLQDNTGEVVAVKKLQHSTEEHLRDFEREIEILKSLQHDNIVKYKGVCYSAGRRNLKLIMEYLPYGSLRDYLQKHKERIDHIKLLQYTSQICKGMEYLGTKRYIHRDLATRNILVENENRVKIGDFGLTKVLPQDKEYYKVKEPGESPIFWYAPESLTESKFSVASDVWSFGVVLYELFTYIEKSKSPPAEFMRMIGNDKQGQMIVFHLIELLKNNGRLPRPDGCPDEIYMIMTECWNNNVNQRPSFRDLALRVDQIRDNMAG
Sequence of JAK1 (P23458 whole entry): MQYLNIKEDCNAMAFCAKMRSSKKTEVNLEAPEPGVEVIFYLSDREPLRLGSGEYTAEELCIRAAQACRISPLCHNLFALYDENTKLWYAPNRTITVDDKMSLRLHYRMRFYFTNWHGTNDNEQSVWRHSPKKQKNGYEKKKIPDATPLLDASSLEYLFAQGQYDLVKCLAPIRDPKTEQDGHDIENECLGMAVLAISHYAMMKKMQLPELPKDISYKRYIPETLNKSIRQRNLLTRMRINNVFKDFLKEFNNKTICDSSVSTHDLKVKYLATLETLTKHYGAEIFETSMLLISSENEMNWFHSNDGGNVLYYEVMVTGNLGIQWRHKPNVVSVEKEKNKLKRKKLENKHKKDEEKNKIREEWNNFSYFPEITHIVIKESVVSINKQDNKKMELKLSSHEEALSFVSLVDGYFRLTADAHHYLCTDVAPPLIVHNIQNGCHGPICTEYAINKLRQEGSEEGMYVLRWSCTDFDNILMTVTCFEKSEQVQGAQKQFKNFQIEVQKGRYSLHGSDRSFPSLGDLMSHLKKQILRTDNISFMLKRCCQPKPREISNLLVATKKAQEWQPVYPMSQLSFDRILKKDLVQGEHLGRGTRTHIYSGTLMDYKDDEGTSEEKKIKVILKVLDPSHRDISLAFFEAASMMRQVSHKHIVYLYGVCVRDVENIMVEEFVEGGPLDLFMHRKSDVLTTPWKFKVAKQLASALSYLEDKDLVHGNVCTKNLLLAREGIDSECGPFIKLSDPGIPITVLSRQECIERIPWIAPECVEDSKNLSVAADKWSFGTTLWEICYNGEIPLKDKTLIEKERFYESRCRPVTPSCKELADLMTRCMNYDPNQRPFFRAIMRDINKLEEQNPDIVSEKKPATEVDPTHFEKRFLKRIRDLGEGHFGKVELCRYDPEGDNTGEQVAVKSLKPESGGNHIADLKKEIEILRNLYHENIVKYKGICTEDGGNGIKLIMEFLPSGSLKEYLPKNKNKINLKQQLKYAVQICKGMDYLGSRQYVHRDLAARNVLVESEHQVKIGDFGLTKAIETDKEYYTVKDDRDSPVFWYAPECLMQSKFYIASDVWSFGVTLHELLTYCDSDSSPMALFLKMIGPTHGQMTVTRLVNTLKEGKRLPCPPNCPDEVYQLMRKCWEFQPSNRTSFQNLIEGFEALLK

## CC(C)(C#N)C(=O)N1CC2(CCC(c3cccc4nc(NC(=O)C5CC5)nn34)CC2)C1 [Compound 1-15]
[1]
  IC50: 9670 nM
[2]
  IC50: 20 nM
[3]
  IC50: 106 nM

## N#CCN1CC2(CCC(c3cccc4nc(NC(=O)C5CC5)nn34)CC2)C1 [Compound 1-16]
[1]
  IC50: > 10000 nM
[2]
  IC50: 114 nM
[3]
  IC50: 581 nM

## N#CCCN1CC2(CCC(c3cccc4nc(NC(=O)C5CC5)nn34)CC2)C1 [Compound 1-17]
[1]
  IC50: > 10000 nM
[2]
  IC50: 65 nM
[3]
  IC50: 371 nM

## N#CCC(=O)N1CC2(CCC(F)(c3cccc4nc(NC(=O)C5CC5)nn34)CC2)C1 [Compound 4-6]
[1]
  IC50: 8450 nM
[4]
  IC50: 2010 nM
[2]
  IC50: 170 nM
[3]
  IC50: 307 nM

## O=C(Nc1nc2cccc(C3CCC4(CC3)CCN(C(=O)[C@@H]3CC3(F)F)C4)n2n1)C1CC1 (some centres unmarked) [Compound 5-7]
[1]
  IC50: 5760 nM
[4]
  IC50: 324 nM
[2]
  IC50: 31 nM
[3]
  IC50: 67 nM

## O=C(Nc1nc2cccc(C3CCC4(CC3)CCN(C(=O)[C@@H]3CC3(F)F)C4)n2n1)C1CC1 (some centres unmarked) [Compound 5-8]
[1]
  IC50: 7350 nM
[4]
  IC50: 789 nM
[2]
  IC50: 75 nM
[3]
  IC50: 692 nM

## O=C(Nc1nc2cccc([C@H]3CCC4(CCN(C(=O)[C@@H]5CC5(F)F)CC4)C3)n2n1)C1CC1 [Compound 6-7]
[1]
  IC50: 9390 nM
[2]
  IC50: 63 nM
[3]
  IC50: 829 nM

## O=C(Nc1nc2cccc([C@@H]3CCC4(CCN(C(=O)[C@@H]5CC5(F)F)CC4)C3)n2n1)C1CC1 [Compound 6-8]
[1]
  IC50: > 10000 nM
[2]
  IC50: 381 nM
[3]
  IC50: 570 nM

## O=C(Nc1nc2cccc([C@H]3CCC4(C3)CN(C(=O)[C@@H]3CC3(F)F)C4)n2n1)C1CC1 [Compound 7-7]
[1]
  IC50: > 10000 nM
[2]
  IC50: 63 nM
[3]
  IC50: 830 nM

## O=C(Nc1nc2cccc([C@@H]3CCC4(C3)CN(C(=O)[C@@H]3CC3(F)F)C4)n2n1)C1CC1 [Compound 7-8]
[1]
  IC50: > 10000 nM
[2]
  IC50: 176 nM
[3]
  IC50: 404 nM

## O=C(Nc1nc2cccc(C3CCC4(CC3)CN(C(=O)[C@@H]3CC3(F)F)C4)n2n1)[C@H]1CC1(F)F [Compound 8-6]
[1]
  IC50: 7640 nM
[4]
  IC50: 110 nM
[2]
  IC50: 14 nM
[3]
  IC50: 127 nM

## N#CCN1CC2(CCC(c3cccc4nc(NC(=O)[C@H]5CC5(F)F)nn34)CC2)C1 [Compound 8-9]
[1]
  IC50: > 10000 nM
[4]
  IC50: 3670 nM
[2]
  IC50: 52 nM
[3]
  IC50: 1330 nM

## O=C(Nc1nc2cccc(C3CCC4(CC3)CN(C(=O)[C@@H]3CC3(F)F)C4)n2n1)[C@@H]1CC1(F)F [Compound 9-3]
[1]
  IC50: > 10000 nM
[4]
  IC50: 292 nM
[2]
  IC50: 7 nM
[3]
  IC50: 105 nM

## N#CCN1CC2(CCC(c3cccc4nc(NC(=O)[C@@H]5CC5(F)F)nn34)CC2)C1 [Compound 9-6]
[1]
  IC50: > 10000 nM
[4]
  IC50: 1170 nM
[2]
  IC50: 432 nM
[3]
  IC50: 1390 nM

## N#CCC(=O)N1CCC2(CCC(c3c(F)ccc4nc(NC(=O)C5CC5)nn34)CC2)CC1 [Compound 10-5]
[1]
  IC50: 5410 nM
[4]
  IC50: 812 nM
[2]
  IC50: 336 nM
[3]
  IC50: 430 nM

## C[C@@H]1C[C@H]2[C@@H]3CCC4=CC(=O)C=C[C@]4(C)[C@@]3(F)[C@@H](O)C[C@]2(C)[C@@]1(O)C(=O)CO [Dexamethasone]
[5]; CIA mice, 0.3 mg/kg p.o. qd
  Inhibition rate (clinical score AUC vs blank group): 97.3%
[5]; CIA mice, 0.3 mg/kg p.o. qd, administration period
  AUC ± SEM of clinical score (AUC of incidence): 1.38 ± 0.81
[5]; [7]
  Average clinical score: 0.00 ± 0.00
  Incidence of arthritis: 0%
[5]; [8]
  Average clinical score: 0.00 ± 0.00
  Incidence of arthritis: 0%
[5]; [9]
  Average clinical score: about 0.3
  Incidence of arthritis: 25%
[5]; CIA mice, 0.3 mg/kg p.o. qd, day 27, listed as Dex
  Average clinical score: 0.25 ± 0.16
[5]; [10]
  Average clinical score: 0.50 ± 0.27
  Incidence of arthritis: 38%
[5]; [11]
  Average clinical score: 0.25 ± 0.16
  Incidence of arthritis: 25%
[5]; [12]
  Average clinical score: 0
  Incidence of arthritis: 0%
[5]; [13]
  Average clinical score: 0.00 ± 0.00
  Incidence of arthritis: 0%
[5]; [14]
  Average clinical score: 0.00 ± 0.00
  Incidence of arthritis: 0%
[5]; [15]
  Average clinical score: 0.00 ± 0.00
  Incidence of arthritis: 0%
[5]; [16]
  Average clinical score: 0.00 ± 0.00
  Incidence of arthritis: 0%
[5]; [17]
  Average clinical score: 0.00 ± 0.00
  Incidence of arthritis: 0%
[5]; CIA mice, 0.3 mg/kg p.o. qd, listed as Dex
  Inhibition rate (clinical score AUC vs blank group): 97.3%
[5]; mouse, in vivo, po, 0.3 mg/kg
  Effect on the weight of mice (comparison between groups): largest weight loss

## O=C(Nc1nc2cccc(-c3ccc(CN4CCS(=O)(=O)CC4)cc3)n2n1)C1CC1 [Filgotinib]
[6]
  Inhibition rate of total pathological score: 5%
[6]; day 13
  Clinical scoring, average: 6.0
  Feet volume, average: 1.9 mL
[6]; day 15
  Clinical scoring, average: 6.6
  Feet volume, average: 2.2 mL
[6]; day 17
  Clinical scoring, average: 6.3
  Feet volume, average: 2.0** mL
[6]; day 20
  Clinical scoring, average: 5.8**
  Feet volume, average: 1.9**** mL
[6]; day 22
  Clinical scoring, average: 5.5***
  Feet volume, average: 2.0**** mL
[6]; day 24
  Clinical scoring, average: 5.4****
  Feet volume, average: 2.0**** mL
[6]; day 27
  Feet volume, average: 1.91 mL and 1.9**** mL
[6]; day 27, right hind leg
  Pathology Scoring: Bone resorption: 3.6 ± 0.2
  Pathology Scoring: Pannus formation: 3.9 ± 0.1
  Pathology Scoring: Total score: 15.2±0.49 and 15.2 ± 0.5
  Pathology Scoring: articular injury: 3.7 ± 0.2
